Measured values as given in US20090298878A1, “OXIME COMPOUNDS AND THE USE THEREOF” (priority 2006, published 2009).

These compounds were tested against T1, N-type calcium channel (NTCC) (Homo sapiens, UniProt Q00975) (assay: FLIPR calcium mobilization assay for N-type calcium channel (differentiated IMR32 cells)). Conditions: about 1.0 μM or less; calcium mobilization and/or electrophysiological assay.
T1 construct: host or cells: IMR32 cells differentiated with dibutyryl cAMP and bromodeoxyuridine
T1 sequence (Q00975 whole entry): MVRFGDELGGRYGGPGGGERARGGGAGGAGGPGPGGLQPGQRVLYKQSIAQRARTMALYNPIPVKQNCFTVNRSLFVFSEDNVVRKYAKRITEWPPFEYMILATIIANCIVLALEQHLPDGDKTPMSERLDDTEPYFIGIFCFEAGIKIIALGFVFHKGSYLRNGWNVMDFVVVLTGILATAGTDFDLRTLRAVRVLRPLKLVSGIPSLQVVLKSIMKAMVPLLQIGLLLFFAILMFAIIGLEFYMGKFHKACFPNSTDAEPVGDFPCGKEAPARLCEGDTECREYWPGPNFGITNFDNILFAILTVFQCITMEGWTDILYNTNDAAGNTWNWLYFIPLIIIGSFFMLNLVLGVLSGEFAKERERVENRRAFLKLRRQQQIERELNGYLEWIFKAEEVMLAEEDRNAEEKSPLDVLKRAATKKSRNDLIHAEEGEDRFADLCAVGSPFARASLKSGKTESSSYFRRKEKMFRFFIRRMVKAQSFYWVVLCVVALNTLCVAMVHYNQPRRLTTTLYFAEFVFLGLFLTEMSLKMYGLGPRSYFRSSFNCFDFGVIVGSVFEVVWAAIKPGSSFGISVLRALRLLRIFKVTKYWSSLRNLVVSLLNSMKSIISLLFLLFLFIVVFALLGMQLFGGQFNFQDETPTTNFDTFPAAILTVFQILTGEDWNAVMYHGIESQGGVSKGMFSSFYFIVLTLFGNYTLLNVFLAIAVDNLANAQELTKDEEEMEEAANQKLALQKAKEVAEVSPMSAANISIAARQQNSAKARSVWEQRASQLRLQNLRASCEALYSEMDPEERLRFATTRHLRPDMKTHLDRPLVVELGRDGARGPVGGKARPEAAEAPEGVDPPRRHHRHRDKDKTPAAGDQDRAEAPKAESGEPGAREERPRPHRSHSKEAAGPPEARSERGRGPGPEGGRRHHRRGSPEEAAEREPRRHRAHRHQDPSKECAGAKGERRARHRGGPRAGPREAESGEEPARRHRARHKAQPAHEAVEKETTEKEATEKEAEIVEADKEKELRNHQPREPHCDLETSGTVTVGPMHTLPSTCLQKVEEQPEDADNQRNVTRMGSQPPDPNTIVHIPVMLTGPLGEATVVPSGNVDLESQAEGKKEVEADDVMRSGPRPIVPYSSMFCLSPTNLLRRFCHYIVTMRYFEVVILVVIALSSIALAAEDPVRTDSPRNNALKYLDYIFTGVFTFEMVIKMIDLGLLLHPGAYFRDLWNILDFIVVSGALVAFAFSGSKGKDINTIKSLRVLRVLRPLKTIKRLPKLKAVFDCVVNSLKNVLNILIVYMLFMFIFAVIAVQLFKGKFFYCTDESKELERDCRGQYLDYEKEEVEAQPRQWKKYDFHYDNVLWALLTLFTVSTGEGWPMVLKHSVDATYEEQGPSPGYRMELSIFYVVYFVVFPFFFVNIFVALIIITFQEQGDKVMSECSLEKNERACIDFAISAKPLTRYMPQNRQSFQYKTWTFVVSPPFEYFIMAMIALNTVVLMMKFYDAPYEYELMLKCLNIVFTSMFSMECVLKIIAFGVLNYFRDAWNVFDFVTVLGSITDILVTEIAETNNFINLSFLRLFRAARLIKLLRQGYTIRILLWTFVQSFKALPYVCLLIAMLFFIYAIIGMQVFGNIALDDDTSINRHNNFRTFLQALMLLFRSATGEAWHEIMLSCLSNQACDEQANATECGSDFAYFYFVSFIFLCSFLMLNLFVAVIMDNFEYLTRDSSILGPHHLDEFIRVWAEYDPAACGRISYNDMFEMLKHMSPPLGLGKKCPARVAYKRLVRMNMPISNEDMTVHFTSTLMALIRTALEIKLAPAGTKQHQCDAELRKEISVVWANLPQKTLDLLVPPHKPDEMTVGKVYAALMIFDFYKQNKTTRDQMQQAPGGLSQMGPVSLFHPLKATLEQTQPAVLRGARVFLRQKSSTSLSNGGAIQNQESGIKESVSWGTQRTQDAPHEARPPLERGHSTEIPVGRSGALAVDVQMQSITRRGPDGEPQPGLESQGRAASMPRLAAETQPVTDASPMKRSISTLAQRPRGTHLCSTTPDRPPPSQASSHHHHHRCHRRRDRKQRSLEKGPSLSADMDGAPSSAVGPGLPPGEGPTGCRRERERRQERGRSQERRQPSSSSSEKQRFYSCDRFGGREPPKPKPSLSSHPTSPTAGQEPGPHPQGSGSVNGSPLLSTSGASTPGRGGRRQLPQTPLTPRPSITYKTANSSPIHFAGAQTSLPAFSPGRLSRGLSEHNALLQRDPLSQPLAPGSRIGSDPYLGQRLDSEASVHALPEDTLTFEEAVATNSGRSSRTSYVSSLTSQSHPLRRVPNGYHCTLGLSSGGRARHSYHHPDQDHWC
Format: cell-based
Procedure: Cell maintenance and differentiation. Unless noted otherwise, cell culture reagents were purchased from Mediatech of Hemdon, Md. IMR32 cells (American Type Culture Collection, ATCC, Manassas, Va.) were routinely cultured in growth medium consisting of minimum essential medium containing 10% fetal bovine serum (FBS, Hyclone, Logan, Utah), 100 U/mL penicillin, 100 μg/mL streptomycin, 2 mM L-glutamine, 1 mM sodium pyruvate, and 1× MEM non-essential amino acids. 80-90% confluent flasks of cells were differentiated using the following differentiation medium: Growth medium plus 1 mM dibutyryl cyclic AMP (Sigma, St. Louis, Mo.), and 2.5 μM bromodeoxyuridine (Sigma). Cells were differentiated for 8 days by replacing differentiation medium every 2-3 days.
FLIPR Calcium Mobilization Assay for N-type Calcium Channel. One day prior to performing this assay, differentiated IMR32 cells were treated with 1× CellStripper, and seeded on poly-D-lysine-coated 96-well clear-bottom black plates (Becton Dickinson, Franklin Lakes, N.J.) at 200,000 cells/well. On the day of the assay, the cell plates were washed with IMR32 buffer (127 mM NaCl, 1 mM KCl, 2 mM MgCl2, 700 μM NaH2PO4, 5 mM CaCl2, 5 mM NaHCO3, 8 mM HEPES, 10 mM glucose, pH 7.4), then pre-stimulated with KCl and loaded as follows: 0.05 mL of IMR32 buffer, 0.05 mL of each compound tested diluted in IMR32 buffer containing 20 μM nitrendipine (Sigma), and 0.1 mL KCl dissolved in IMR32 buffer, plus Fluo-4 were added (3 μM final concentration, Molecular Probes, Eugene, Oreg.). Final test compound concentrations ranged from about 846 pM to about 17 μM, final nitrendipine concentration was 5 μM, and final KCl concentration was 90 mM. After 1 hour, the cells were washed twice with 0.05 mL of each compound tested in nitrendipine-containing IMR32 buffer (no KCl or Fluo-4), and then replaced with 0.1 mL of each compound tested in nitrendipine-containing IMR32 buffer. Plates were then transferred to a Fluorimetric imaging Plate Reader (FLIPR^96, Molecular Devices, Inc., Sunnyvale, Calif.) for assay. The FLIPR measured basal Fluo-4 fluorescence for 315 seconds (i.e., 5 minutes and 15 seconds), then added 0.1 mL KCl agonist dissolved in IMR32 buffer and measured fluorescence for another 45 seconds. Final test compound concentrations on the cells after FLIPR read ranged from about 846 pM to about 17 μM, final nitrendipine concentration was 5 μM, and final KCl concentration was 90 mM. Data were collected over the entire time course and analyzed using Excel, Graph Pad Prism (version 3.02, Graph Pad, San Diego, Calif.), or an in-house non-linear regression analysis software.

SMILES | IC50 [nM]
O=c1ccc(CON=C2CCN(S(=O)(=O)c3ccc(OC(F)(F)F)cc3)CC2)cn1-c1ccc(F)cc1 [Example 314, 1-(4-Fluorophenyl)-5-((1-(4-(trifluoromethoxy)phenylsulfonyl)piperidin-4-ylideneaminooxy)methyl)pyridin-2(1H)-one] | ≤ 1000
O=S(=O)(c1ccccn1)N1CCC(=NOC(c2ccc(F)cc2)c2ccc(F)cc2)CC1 [Example 288, 1-(Pyridin-2-ylsulfonyl)piperidin-4-one O-bis(4-fluorophenyl)methyl oxime] | ≤ 1000
N#Cc1cccc(C(ON=C2CCN(S(=O)(=O)c3ccc(OC(F)(F)F)cc3)CC2)c2cccnc2)c1 (centres unmarked) [Example 270, 3-(Pyridin-3-yl(1-(4-(trifluoromethoxy)phenylsulfonyl)piperidin-4-ylideneaminooxy)methyl)benzonitrile] | ≤ 1000
COc1cc(CON=C2CCN(S(=O)(=O)c3ccc(OC(F)(F)F)cc3)CC2)cc(Cl)n1 [Example 147, 1-(4-Trifluoromethoxybenzenesulfonyl)piperidin-4-one O-(2-chloro-6-methoxypyridin-4-ylmethyl)oxime] | ≤ 1000
CCCCc1ccc(S(=O)(=O)N2CCC(=NOCc3ccncc3)CC2)cc1 [Example 71, 1-(4-Butylbenzenesulfonyl)piperidin-4-one O-pyridin-4-ylmethyloxime] | ≤ 1000
CC(ON=C1CCN(S(=O)(=O)c2cccc(C(F)(F)F)c2)CC1)c1ccccc1 (centres unmarked) [Example 276, 1-(3-(Trifluoromethyl)phenylsulfonyl)piperidin-4-one O-1-phenylethyl oxime] | ≤ 1000
O=S(=O)(c1ccccc1)N1CCC(=NOCc2cccc(C(F)(F)F)c2)CC1 [Example 51, 1-Benzenesulfonylpiperidin-4-one O-(3-trifluoromethylbenzyl)oxime] | ≤ 1000
CCCCc1ccc(S(=O)(=O)N2CCC(=NOC(c3ccc(F)cc3)c3ccc(F)cc3)CC2)cc1 [Example 231, 1-(4-Butylphenylsulfonyl)piperidin-4-one O-bis(4-fluorophenyl)methyl oxime] | ≤ 1000
N#Cc1cccc(S(=O)(=O)N2CCC(=NOC(c3ccc(F)cc3)c3ccc(F)cc3)CC2)c1 [Example 267, 3-(4-(Bis(4-fluorophenyl)methoxyimino)piperidin-1-ylsulfonyl)benzonitrile] | ≤ 1000
Cn1c(Cl)cc(CON=C2CCN(S(=O)(=O)c3ccc(OC(F)(F)F)cc3)CC2)cc1=O [Example 152, 6-Chloro-1-methyl-4-[1-(4-trifluoromethoxybenzenesulfonyl)piperidin-4-ylideneaminooxymethyl]-1H-pyridin-2-one] | ≤ 1000
O=S(=O)(c1ccc(NC2CC2)nc1)N1CCC(=NOCc2cccc(C(F)(F)F)c2)CC1 [Example 321, 1-(6-Cyclopropylaminopyridine-3-sulfonyl)piperidin-4-one O-(3-trifluoromethylbenzyl)oxime] | ≤ 1000
CCCCc1ccc(S(=O)(=O)N2CCC(=NOCc3cccc(Cl)n3)CC2)cc1 [Example 75, 1-(4-Butylbenzenesulfonyl)piperidin-4-one O-(6-chloropyridin-2-ylmethyl)oxime] | ≤ 1000
N#Cc1cccc(C(ON=C2CCN(S(=O)(=O)c3ccc(OC(F)(F)F)cc3)CC2)c2ccccn2)c1 (centres unmarked) [Example 271, 3-(Pyridin-2-yl(1-(4-(trifluoromethoxy)phenylsulfonyl)piperidin-4-ylideneaminooxy)methyl)benzonitrile] | ≤ 1000
CCCCc1ccc(S(=O)(=O)N2CCC(=NOCc3cc(Cl)ccn3)CC2)cc1 [Example 73, 1-(4-Butylbenzenesulfonyl)piperidin-4-one O-(4-chloropyridin-2-ylmethyl)oxime] | ≤ 1000
Cn1c(CON=C2CCN(S(=O)(=O)c3ccc(OC(F)(F)F)cc3)CC2)nc2ccccc21 [Example 160, 1-(4-(Trifluoromethoxy)phenylsulfonyl)piperidin-4-one O-(1-methyl-1H-benzo[d]imidazol-2-yl)methyl oxime] | ≤ 1000
CCCCC(C)ON=C1CCN(S(=O)(=O)c2cccc(C(F)(F)F)c2)CC1 (centres unmarked) [Example 367, 1-(3-(Trifluoromethyl)phenylsulfonyl)piperidin-4-one O-hexan-2-yl oxime] | ≤ 1000

SMILES | IC50 [nM]
O=S(=O)(c1cccc(OC(F)(F)F)c1)N1CCC(=NOCc2cccc(C(F)(F)F)c2)CC1 [Example 59, 1-(3-Trifluoromethoxybenzenesulfonyl)piperidin-4-one O-(3-trifluoromethylbenzyl)oxime] | ≤ 1000
N#Cc1ccc(S(=O)(=O)N2CCC(=NOCc3cccc(C(F)(F)F)c3)CC2)cc1 [Example 53, 4-[4-(3-Trifluoromethylbenzyloxyimino)piperidine-1-sulfonyl]benzonitrile] | ≤ 1000
N#Cc1cc(CON=C2CCN(S(=O)(=O)c3ccc(OC(F)(F)F)cc3)CC2)ccn1 [Example 177, 4-((1-(4-(Trifluoromethoxy)phenylsulfonyl)piperidin-4-ylideneaminooxy)methyl)picolinonitrile] | ≤ 1000
N#Cc1cc(CON=C2CCN(C(=O)CCC(c3ccc(F)cc3)c3ccc(F)cc3)CC2)ccc1F [Example 181, 5-((1-(4,4-Bis(4-fluorophenyl)butanoyl)piperidin-4-ylideneaminooxy)methyl)-2-fluorobenzonitrile] | ≤ 1000
CCCCc1ccc(S(=O)(=O)N2CCC(=NOCc3ccccn3)CC2)cc1 [Example 68, 1-(4-Butylbenzenesulfonyl)piperidin-4-one O-pyridin-2-ylmethyloxime] | ≤ 1000
O=S(=O)(c1cccs1)N1CCC(=NOC(c2ccc(F)cc2)c2ccc(F)cc2)CC1 [Example 252, 1-(Thiophen-2-ylsulfonyl)piperidin-4-one O-bis(4-fluorophenyl)methyl oxime] | ≤ 1000
COc1ccc(S(=O)(=O)N2CCC(=NOC(c3ccc(F)cc3)c3ccc(F)cc3)CC2)cc1OC [Example 268, 1-(3,4-Dimethoxyphenylsulfonyl)piperidin-4-one O-bis(4-fluorophenyl)methyl oxime] | ≤ 1000
O=C(CCC(c1ccc(F)cc1)c1ccc(F)cc1)N1CCC(=NOCc2ccccc2)CC1 [Example 31, 1-[4,4-Bis-(4-fluorophenyl)butyryl]piperidin-4-one O-benzyloxime] | ≤ 1000
CCCCc1ccc(S(=O)(=O)N2CCC(=NOCc3cccnc3)CC2)cc1 [Example 70, 1-(4-Butylbenzenesulfonyl)piperidin-4-one O-pyridin-3-ylmethyloxime] | ≤ 1000
O=[N+]([O-])c1ccc(CON=C2CCN(S(=O)(=O)c3ccc(OC(F)(F)F)cc3)CC2)cc1 [Example 134, 1-(4-Trifluoromethoxybenzenesulfonyl)piperidin-4-one O-(4-nitrobenzyl)oxime] | ≤ 1000
O=c1ccc(C(ON=C2CCN(S(=O)(=O)c3ccc(OC(F)(F)F)cc3)CC2)c2ccc(F)cc2)c[nH]1 (centres unmarked) [Example 214, 5-((4-Fluorophenyl)(1-(4-(trifluoromethoxy)phenylsulfonyl)piperidin-4-ylideneaminooxy)methyl)pyridin-2(1H)-one] | ≤ 1000
CN(C)c1cccc(CON=C2CCN(S(=O)(=O)c3ccc(OC(F)(F)F)cc3)CC2)c1 [Example 128, 1-(4-Trifluoromethoxybenzenesulfonyl)piperidin-4-one O-(3-dimethylaminobenzyl)oxime] | ≤ 1000
N#Cc1cccc(C(COc2ccc(F)cc2)ON=C2CCN(S(=O)(=O)c3ccc(OC(F)(F)F)cc3)CC2)c1 (centres unmarked) [Example 304, 3-(2-(4-Fluorophenoxy)-1-(1-(4-(trifluoromethoxy)phenylsulfonyl)piperidin-4-ylideneaminooxy)ethyl)benzonitrile] | ≤ 1000
CCCNc1ccc(S(=O)(=O)N2CCC(=NOCc3cccc(C(F)(F)F)c3)CC2)cn1 [Example 99] | ≤ 1000
Nc1ccccc1S(=O)(=O)N1CCC(=NOCc2cccc(C(F)(F)F)c2)CC1 [Example 85, 1-(2-Aminobenzenesulfonyl)piperidin-4-one O-(3-trifluoromethylbenzyl)oxime] | ≤ 1000

Same assay, conditions: calcium mobilization in vitro assay, N-type calcium channel blockers

SMILES | IC50 [nM]
O=C(CC(=O)N1CCC(=NOC(c2ccc(F)cc2)c2ccc(F)cc2)CC1)Nc1ccc(F)cc1F [Example 227, 3-(4-(Bis(4-fluorophenyl)methoxyimino)piperidin-1-yl)-N-(2,4-difluorophenyl)-3-oxopropanamide] | 1100
